The nature of this data set: in vitro. The settings on record: human, hela cells, % viability.

Take `CCOC(=O)Cc1csc(NC(=O)CSc2nc3cc4c(cc3cc2C)OCO4)n1` [CBK109112]: the viability (usually a read-out of living cells in per cent, often relative to untreated cells) at 28.5 h, 10 µM was 105%.

`Cc1cccc2cc(C#N)c(NCCCn3ccnc3)nc12` [CBK109369]: the viability at 28.5 h, 10 µM is 77.9%.

`O=C1c2ccccc2CN1c1cccc(Cl)c1Cl` [CBK109916]: the viability at 28.5 h, 10 µM was 82.3%.

`COc1ccc2c(c1OC)C(=O)N(c1cccc(/C=C/C(=O)O)c1)C2` [CBK109932]: the viability at 28.5 h, 10 µM came to 90.3%.

With `COc1ccc2c(c1OC)C(=O)N(c1ncc(C)s1)C2` [CBK109943], the viability at 28.5 h, 10 µM worked out at 99%.

Consider `O=C1c2ccccc2C2OCc3ccccc3N12` (stereo not drawn) [CBK109952], for which the viability at 28.5 h, 10 µM came out at 105%.

As for `CC(=O)OCc1nc2cc(F)c(F)cc2[nH]1` [CBK110117], the viability at 28.5 h, 10 µM stood at 92.9%.

Turning to `Cc1ccc(S(=O)(=O)NC(C)C(=O)Nc2cc(-c3nc4ccccc4[nH]3)ccc2C)cc1` (stereo not drawn) [CBK110320], the viability at 28.5 h, 10 µM turned out to be 96.2%.

For the compound `O=[N+]([O-])c1cc([N+](=O)[O-])c2cccnc2c1NNc1nncc2ccccc12` [CBK110409], the viability at 28.5 h, 10 µM came out at 85.1%.

Take `Cc1nc2cc(Cl)ccc2n1CCO` [CBK110738]: the viability at 28.5 h, 10 µM is 100%.

Consider `CCCCC(=O)NC(c1ccccc1OC)c1cc(Cl)c2cccnc2c1O` (stereo not drawn) [CBK110947], for which the viability at 28.5 h, 10 µM was 84.4%.

Take `O=C(C1=C(O)C(=O)N(CCCn2ccnc2)C1c1ccncc1)c1cccs1` (stereo not drawn) [CBK111017]: the viability at 28.5 h, 10 µM stood at 106%.

With `O=C(CN1CCOCC1)Nc1c2c(nc3ccccc13)N(c1ccccc1)CC2` [CBK111136G], the viability at 28.5 h, 10 µM came to 87.9%.

Turning to `COc1ccc2occ(C(=O)c3ccc(N)cc3)c2c1` [CBK111303], the viability at 28.5 h, 10 µM is 81.8%.

Take `COc1ccc(C)cc1NS(=O)(=O)CC(C)C` [CBK111346]: the viability at 28.5 h, 10 µM was found to be 93.8%.

`COc1ccc(C(=O)c2c[nH]c3ccccc23)cc1` [CBK111451]: the viability at 28.5 h, 10 µM came to 88.9%.

For the compound `O=C(O)CCn1c(CO)nc2ccccc21` [CBK111473], the viability at 28.5 h, 10 µM worked out at 115%.

In the case of `COCCn1nnnc1C(c1cc2cc(C)ccc2[nH]c1=O)N1CCN(C(=O)c2ccco2)CC1` (stereo not drawn) [CBK111562], the viability at 28.5 h, 10 µM was found to be 80.3%.

As to `O=C(CSc1nnc(-c2cccnc2)n1Cc1ccccc1)NCc1ccccc1` [CBK111647], the viability at 28.5 h, 10 µM was found to be 95.7%.

Regarding `COc1ccc(C(=O)C(C)OC(=O)c2ccc3ccccc3n2)cc1` (stereo not drawn) [CBK111937], the viability at 28.5 h, 10 µM worked out at 99%.

With `CCOC(=O)CN1N=C(C)C(Cc2c(Cl)cccc2Cl)(OC)C1=O` (stereo not drawn) [CBK112646], the viability at 28.5 h, 10 µM worked out at 98.1%.

Take `FC(F)(F)c1cccc(-c2cnn(-c3ccc4c(c3)OCO4)n2)c1` [CBK112664]: the viability at 28.5 h, 10 µM was found to be 89.6%.

Regarding `CS(=O)(=O)c1ccc(-n2ncc(-c3cccc(C(F)(F)F)c3)n2)cc1` [CBK112672], the viability at 28.5 h, 10 µM worked out at 95.6%.

For the compound `COc1ccc(-n2ncc(-c3ccc(C(F)(F)F)cc3)n2)cc1` [CBK112688], the viability at 28.5 h, 10 µM is 92.4%.

As to `CN(C)c1ccc(-n2ncc(-c3ccccc3C(F)(F)F)n2)cc1` [CBK112716], the viability at 28.5 h, 10 µM was determined as 92.4%.

For the compound `COc1ccc(-c2cnn(-c3cncnc3)n2)cc1` [CBK112763], the viability at 28.5 h, 10 µM amounted to 94.5%.

`COc1ccc(-c2cnn(-c3ccc(OC(F)(F)F)cc3)n2)cc1` [CBK112773]: the viability at 28.5 h, 10 µM was determined as 87.6%.

On to `Oc1ccc(-n2ncc(-c3ccc(Cl)cc3)n2)cc1` [CBK112794], for which the viability at 28.5 h, 10 µM came out at 86.8%.

Regarding `NC(=O)c1cccc(-n2ncc(-c3cccnc3)n2)c1` [CBK112806], the viability at 28.5 h, 10 µM stood at 81.6%.

As for `CC(=O)Nc1cccc(-n2ncc(-c3cccnc3)n2)c1` [CBK112811], the viability at 28.5 h, 10 µM was 98.7%.

On to `COc1cccc(-n2ncc(-c3cccnc3)n2)c1` [CBK112813], for which the viability at 28.5 h, 10 µM turned out to be 89.9%.

Regarding `Clc1ccc(-n2ncc(-c3cccnc3)n2)cc1Cl` [CBK112814], the viability at 28.5 h, 10 µM came to 101%.

`c1cncc(-c2cnn(-c3ccc4[nH]ccc4c3)n2)c1` [CBK112820]: the viability at 28.5 h, 10 µM was 85.7%.

For `O=S1(=O)CCN(Cc2cnn(-c3cncnc3)n2)CC1` [CBK112878], the viability at 28.5 h, 10 µM worked out at 100%.

Turning to `O=S1(=O)CCN(Cc2cnn(-c3ccc(OC(F)(F)F)cc3)n2)CC1` [CBK112883], the viability at 28.5 h, 10 µM came to 95.3%.

Regarding `CC(=O)c1ccc(-n2ncc(-c3ccc(F)cc3)n2)cc1` [CBK112889], the viability at 28.5 h, 10 µM was 100%.

In the case of `Oc1ccc(-n2ncc(-c3ccc(F)cc3)n2)cc1` [CBK112904], the viability at 28.5 h, 10 µM worked out at 79.7%.

Take `COc1ccc(-n2ncc(-c3ccc(Br)cc3F)n2)cc1OC` [CBK112915]: the viability at 28.5 h, 10 µM amounted to 96.9%.

Take `COC(=O)c1ccc(-n2cc(-c3cccc(C(F)(F)F)c3)nn2)cc1` [CBK112936]: the viability at 28.5 h, 10 µM amounted to 90%.

`COc1ccc(-n2cc(-c3ccc(C(F)(F)F)cc3)nn2)cc1OC` [CBK112952]: the viability at 28.5 h, 10 µM came out at 96.8%.

On to `N#Cc1cccc(-n2cc(-c3ccc(C(F)(F)F)cc3)nn2)c1` [CBK112957], for which the viability at 28.5 h, 10 µM came to 88.1%.

Turning to `COc1ccc(-n2cc(-c3ccccc3C(F)(F)F)nn2)cc1OC` [CBK112965], the viability at 28.5 h, 10 µM came out at 89.4%.

For `Oc1ccc(-n2cc(-c3ccccc3C(F)(F)F)nn2)cc1` [CBK112971], the viability at 28.5 h, 10 µM is 95.5%.

As to `N#Cc1ccc(-n2cc(-c3ccc(F)cc3F)nn2)cc1` [CBK112990], the viability at 28.5 h, 10 µM is 98.3%.

Regarding `COc1ccc(-c2cn(-c3ccc(OC)c(OC)c3)nn2)cc1` [CBK113001], the viability at 28.5 h, 10 µM was 121%.

On to `COc1ccc(-c2cn(-c3cccc(NC(C)=O)c3)nn2)cc1` [CBK113008], for which the viability at 28.5 h, 10 µM is 97.2%.

For `COc1ccc(-c2cn(-c3ccc(OC(F)(F)F)cc3)nn2)cc1` [CBK113024], the viability at 28.5 h, 10 µM was determined as 110%.

Turning to `Clc1ccc(-c2cn(-c3cnc4ccccc4c3)nn2)cc1` [CBK113044], the viability at 28.5 h, 10 µM turned out to be 94.8%.

In the case of `Cc1ccc(Cl)cc1-n1cc(-c2ccc(Cl)cc2)nn1` [CBK113045], the viability at 28.5 h, 10 µM is 82.4%.

As for `NC(=O)c1ccc(-n2cc(-c3ccc(Cl)cc3)nn2)cc1` [CBK113046], the viability at 28.5 h, 10 µM was 93.4%.

With `Fc1ccc(-n2cc(-c3cccnc3)nn2)cc1F` [CBK113055], the viability at 28.5 h, 10 µM stood at 89.3%.

Turning to `CS(=O)(=O)c1ccc(-n2cc(-c3cccnc3)nn2)cc1` [CBK113061], the viability at 28.5 h, 10 µM is 104%.

For the compound `NC(=O)c1cccc(-n2cc(-c3ccsc3)nn2)c1` [CBK113076], the viability at 28.5 h, 10 µM amounted to 86.4%.

Take `Oc1ccc(-n2cc(-c3ccsc3)nn2)cc1` [CBK113093]: the viability at 28.5 h, 10 µM is 84.6%.

Turning to `COc1ccc(-n2cc(-c3ccc(F)cc3)nn2)cc1OC` [CBK113110], the viability at 28.5 h, 10 µM was found to be 89.8%.

For the compound `Fc1ccc(-c2cn(-c3ccc(OCc4ccccc4)c(F)c3)nn2)cc1` [CBK113121], the viability at 28.5 h, 10 µM came to 99%.

As for `Oc1ccc(-n2cc(-c3ccc(F)cc3)nn2)cc1` [CBK113126], the viability at 28.5 h, 10 µM is 82%.

`Cc1ccc(Cl)cc1-n1cc(-c2ccc(F)cc2)nn1` [CBK113128]: the viability at 28.5 h, 10 µM came out at 98.9%.

Turning to `N#Cc1cccc(-n2cc(-c3ccc(Br)cc3F)nn2)c1` [CBK113143], the viability at 28.5 h, 10 µM was 95.4%.

In the case of `Fc1cc(Br)ccc1-c1cn(-c2ccc(Oc3ccccc3)cc2)nn1` [CBK113145], the viability at 28.5 h, 10 µM stood at 89.5%.

For the compound `C=CCC1c2cccc(C(=O)O)c2C(=O)N1c1ccc(F)cc1` (stereo not drawn) [CBK113158], the viability at 28.5 h, 10 µM was 94.1%.

`C=CCC1c2cccc(C(=O)O)c2C(=O)N1c1cccc(OC)c1` (stereo not drawn) [CBK113160]: the viability at 28.5 h, 10 µM turned out to be 96.7%.

On to `COc1ccc(OC)c(N2Cc3ccc(OC)c(OC)c3C2=O)c1` [CBK113161], for which the viability at 28.5 h, 10 µM was determined as 82.9%.

As to `COc1cc(NS(=O)(=O)c2cc(C(=O)O)c(Cl)cc2Cl)cc(OC)c1` [CBK113162], the viability at 28.5 h, 10 µM was found to be 98.9%.

On to `O=C(O)c1ccc(NS(=O)(=O)c2cc(C(=O)O)ccc2Br)cc1` [CBK113164], for which the viability at 28.5 h, 10 µM is 106%.

For `Cc1ccc(-c2nsc(SCC(=O)c3ccc(Cl)cc3)n2)cc1` [CBK113177], the viability at 28.5 h, 10 µM was found to be 92.1%.

On to `O=C1c2ccccc2CN1c1nccs1` [CBK113184], for which the viability at 28.5 h, 10 µM worked out at 84.8%.

On to `COC(=O)c1ccc(S(N)(=O)=O)o1` [CBK113186], for which the viability at 28.5 h, 10 µM stood at 105%.

As to `O=C1c2ccccc2S(=O)(=O)N1c1ccc(F)cc1` [CBK113194], the viability at 28.5 h, 10 µM worked out at 112%.

As for `N#Cc1ccc(N2C(=O)c3ccccc3S2(=O)=O)cc1` [CBK113195], the viability at 28.5 h, 10 µM came out at 113%.

As to `Cc1nc2ccc(NC(=O)Nc3cccc(-c4ccc5c(c4)COC4(CCNCC4)O5)c3)cc2o1` [CBK113206], the viability at 28.5 h, 10 µM (bulk resorufin, single well) stood at 101%.

Take `CCOC(=O)Cn1nc(CC)c(Cc2c(Cl)cccc2Cl)c1C` [CBK113222]: the viability at 28.5 h, 10 µM was found to be 122%.

`COc1ccc(C(=O)Nc2nsc(-c3ccccc3)n2)cc1` [CBK113233]: the viability at 28.5 h, 10 µM worked out at 97.2%.

Regarding `O=C(Nc1nc(-c2ccccc2)ns1)c1ccncc1` [CBK113234], the viability at 28.5 h, 10 µM amounted to 81.6%.

`O=C1c2ccccc2C(Nc2cccnc2)N1c1ccccn1` (stereo not drawn) [CBK113239]: the viability at 28.5 h, 10 µM is 80.5%.

`Cc1[nH]c(=O)[nH]c(=O)c1Cc1ccccc1` [CBK113244]: the viability at 28.5 h, 10 µM came out at 113%.

For the compound `Cc1ccc(NC(=O)c2c[nH]c(=O)[nH]c2=O)cc1` [CBK113246], the viability at 28.5 h, 10 µM was 95.7%.

As for `O=c1[nH]c(=S)[nH]c2c1CCC2` [CBK113252], the viability at 28.5 h, 10 µM was determined as 92.4%.

`CCN(CC)CCCCC1(C)SC(NC2CCCCCC2)=NC1=O` (stereo not drawn) [CBK113257]: the viability at 28.5 h, 10 µM came to 96.9%.

With `O=C1S/C(=C/c2ccc(Cl)cc2)C(=O)N1c1ccc(F)cc1` [CBK113265], the viability at 28.5 h, 10 µM came to 102%.

With `CC(C)Nc1cc(OC2CCN(C)CC2)ncn1` [CBK113280], the viability at 28.5 h, 10 µM is 83.6%.

`FC(F)(F)c1ccc(OC2CCNCC2)nc1` [CBK113287]: the viability at 28.5 h, 10 µM was 83%.

Consider `CN1CCN(C)C(COc2ccc(C(F)(F)F)cn2)C1` (stereo not drawn) [CBK113288], for which the viability at 28.5 h, 10 µM was determined as 96.8%.

As for `FC(F)(F)c1cccc(OCCN2CCNCC2)n1` [CBK113291], the viability at 28.5 h, 10 µM was found to be 91.5%.

These data come from paper PMC12040169 (PLOS Biology, 2025).
